# Where two headings read alike, the source gives them in different places.
# Tests used:
# [1] = tested on: pesticide-resistant green rice leafhopper (Nephotettix cincticeps); assay: whole plant or invertebrate; format: in vivo; conditions: for mortality at 0.0225 % / mortality at 0.0125 %: Nephotettix cincticeps, 24 h, read-out: Mortality (%) after 24 hours
# Protocol: The dilute solution was sprayed on rice plants in a 180-ml plastic cup at a rate of 15 cc/3 cups by means of a turn table. After air-drying, the treated rice plants were placed in a 5-liter beaker which was then covered with gauze. About 15 female adults of pesticide-resistant green rice leafhopper (Nephotettix cincticeps) were released in the beaker. After 3 hours, the knock-down ratio was examined, and after 24 hours the mortality was examined.
# [2] = Fish toxicity to carps, TLm48 (Experimental example 6); format: in vivo; conditions: carp, in vivo, read-out: TLm48 (ppm)
# Protocol: (§1) Ten liters of the dilute solution was placed in a 10-liter glass vessel and 10 carps were liberated therein. After 48 hours, the dead and alive were examined to calculate TLm48 (ppm).
# [3] = tested on: pesticide-resistant green rice leafhopper (Nephotettix cincticeps); assay: Mortality of pesticide-resistant green rice leafhopper on dusted rice plants (Experimental example 3); format: in vivo; conditions: 2 kg/10 are
# Protocol: The dusts (36), (37), (39), (43), (47) or (48) prepared in Preparation example 2 were each applied by means of a Bell jar duster to rice plants in a 1/10,000 are Wagner's pot at a rate of 2 kg/10 are. The treated pot was placed in a cylinder (diameter 20 cm, height 60 cm) which was then covered with gauze. About 30 female adults of pesticide-resistant green rice leafhopper (Nephotettix cincticeps) were liberated therein. After 24 hours, the mortality was examined.
# [4] = tested on: green rice leafhoppers (Nephotettix cincticeps); assay: Density index of green rice leafhopper adults in paddy field, sweeping method (Experimental example 1); format: in vivo; conditions: 3 kg/10 are, untreated = 100
# [5] = tested on: rice stem borer (Chilo suppressalis); assay: Mortality of rice stem borer on dusted rice plants (Experimental example 4); format: in vivo; conditions: 3 kg/10 are, five days after application, 7200 min
# Excerpt: About 50 eggs just before hatch of rice stem borer (Chilo suppressalis) were put on rice plants at the tiller stage cultivated in a 1/5,000 are Wagner's pot. After 5 days, the dust (1) prepared in Preparation example 2 was applied thereto at a rate of 3 kg/10are by means of a Bell jar duster. Five days after application, the rice stem was dissected to observe the dead and alive of rice stem borers.
# in vivo = conditions: mouse, po
# carps = assay: Fish toxicity to carps, TLm48 (Experimental example 6); format: in vivo; conditions: as 0.3% dust; 48 hours
# Protocol: as §1
# harmful organisms = conditions: reported in Published Unexamined Japanese Patent Application No. 125145/1977; cited from earlier work
# [6] = as 20% wettable powder, diluted 25,000 times
# [7] = 25% wettable powder, diluted 2,000 times
compound,measurement,setting,value
"CC(C)OP(=O)(OC(C)C)SCc1ccccc1 [IBP, O,O-Diisopropyl S-benzylphosphorothioate]",mortality at 0.0225 %,[1],0%
same,Knock-down ratio (%) after 3 hours,[1]; in vivo,0%
same,LC50 at 48 h,[2]; as 0.3% dust,> 5 µg/mL
CC1(C)C(C=C(Cl)Cl)C1C(=O)OC(C#N)c1cccc(Oc2ccc(Br)cc2)c1 (racemic),Knock-down ratio (%) after 3 hours,[1]; [6],50%
same,Mortality (%) after 24 hours,[1]; [6],80%
"CNC(=O)Oc1cccc(C)c1 [MTMC, m-Tolyl N-methylcarbamate]",Mortality (%) after 24 hours,[3]; as 2% dust,30%
"COP(=S)(OC)Oc1ccc([N+](=O)[O-])c(C)c1 [Sumithion, O,O-Dimethyl O-(3-methyl-4-nitrophenyl)phosphorothioate]",Density index After 2 days,[4]; as 5% dust,60
same,Density index After 15 days,[4]; as 5% dust,95
same,mortality at 0.0225 %,[1],15%
same,Knock-down ratio (%) after 3 hours,[1]; in vivo,0%
same,Mortality (%) after 24 hours,[3]; as 2% dust,10%
same,Mortality (%),[5]; as 3% dust,70%
same,LD50 at 24 h,in vivo,> 1000 mg/kg
"CC1(C)C(C=C(Cl)Cl)C1C(=O)OC(C#N)c1cccc(Oc2ccc(Br)cc2)c1 (racemic) [m-(p-bromophenoxy)-α-cyanolbenzyl trans- or trans-rich-2,2-dimethyl-3-(2,2-dichlorovinyl)cyclopropanecarboxylate]",Density index After 2 days,[4]; as 0.1% dust,5
same,Density index After 15 days,[4]; as 0.1% dust,25
same,Mortality (%) after 24 hours,[3]; as 0.05% dust,85%
same,LD50 at 24 h,in vivo,> 2000 mg/kg
"CNC(=O)Oc1ccccc1OC(C)C [PHC, 2-Isopropoxyphenyl N-methylcarbamate]",LC50 at 48 h,[2]; as 0.3% dust,> 5 µg/mL
"CCC(C)c1ccccc1OC(=O)NC (centres unmarked) [BPMC, 2-sec-Butylphenyl N-methylcarbamate]",Knock-down ratio (%) after 3 hours,[1]; [7],3%
same,mortality at 0.0125 %,[1]; [7],3%
m-Isopropylphenoxy N-methylcarbamate [MIPC],TLm48 (ppm),carps,> 5 ppm
"CNC(=O)Oc1cccc2ccccc12 [NAC, 1-Naphthyl N-methylcarbamate]",mortality at 0.0125 %,[1],10%
"CCCOP(=O)(OCCC)Oc1ccc(SC)cc1 [Kayaphos, O,O-Di-n-propyl p-methylthiophenylphosphate]",Mortality (%) after 24 hours,[3]; as 2% dust,43%
"CCOP(=S)(OCC)Oc1cc(C)nc(C(C)C)n1 [Diazinon, O,O-Diethyl O-(2-isopropyl-4-methyl-6-pyrimidinyl)phosphorothioate]",Density index After 2 days,[4]; as 5% dust,20
same,Density index After 15 days,[4]; as 5% dust,35
same,LC50 at 48 h,[2]; as 0.3% dust,> 5 µg/mL
"COP(=S)(OC)Oc1ccc(SC)c(C)c1 [Baycid, O,O-Dimethyl O-[3-methyl-4-(methylthio)phenyl]thiophosphate]",mortality at 0.0225 %,[1],20%
same,Knock-down ratio (%) after 3 hours,[1]; in vivo,0%
"CC1(C)C(C=C(Cl)Cl)C1C(=O)OC(C#N)c1cccc(Oc2ccc(Br)cc2)c1 (stereo not drawn) [compound of the formula (I), m-(p-bromophenoxy)-α-cyanolbenzyl trans- or trans-rich-2,2-dimethyl-3-(2,2-dichlorovinyl)cyclopropanecarboxylate]",insecticidal and acaricidal activity,harmful organisms,has insecticidal and acaricidal activity
"CC1(C)[C@H](C=C(Cl)Cl)[C@H]1C(=O)OC(C#N)c1cccc(Oc2ccc(Br)cc2)c1 (relative stereo) [Compound of the formula (I) [dl(acid moiety)-trans isomer], m-(p-bromophenoxy)-α-cyanolbenzyl trans- or trans-rich-2,2-dimethyl-3-(2,2-dichlorovinyl)cyclopropanecarboxylate]",Density index After 2 days,[4]; as 0.1% dust,3
same,Density index After 15 days,[4]; as 0.1% dust,18
same,Mortality (%),[5]; as 0.1% dust,20%
same,LC50 at 48 h,[2]; as 0.1% dust,> 5 µg/mL
same,LD50 at 24 h,in vivo,> 2000 mg/kg
"CNC(=O)Oc1ccc(C)c(C)c1 [MPMC, 3,4-Xylyl N-methylcarbamate]",Density index After 2 days,[4]; as 3% dust,7
same,Density index After 15 days,[4]; as 3% dust,60
same,Knock-down ratio (%) after 3 hours,[1]; [7],10%
same,mortality at 0.0125 %,[1],10%

# Source: patent US4443438A (priority 1978, dated 1984)
